# Measurements from patent US9993462B2, “Hydantoin derivative-containing pharmaceutical composition” (Chugai Seiyaku Kabushiki Kaisha, priority 2014, dated 2018).
# Legend:
# [1] = system: rat hepatocyte; experiment: Metabolic stability using rat hepatocyte; assay type: in vitro ADME
# Procedure: Liver cells were prepared from the liver of rats (SD, female) by a collagenase perfusion method. A compound of the Reference Examples or a Comparative Example was added, and this was incubated at 37° C. for a specified amount of time, followed by addition of a reaction-stopping solution. The concentration of the parent compound at each reaction time was measured using LC/MS/MS, and inherent clearance (μL/10^6 cells/min) was calculated from the slope of the reaction time versus residual rate.
# • Cell concentration: 1×10^6 cells/mL • Compound concentration: 1 μM • Medium: Williams' medium E • Reaction time: 0, 15, 30, 60, 120, and 240 minutes • Reaction-stopping solution: acetonitrile/2-propanol (4/6, v/v)
# [2] = molecular target: T1, human PTH1R (Homo sapiens, UniProt Q03431); experiment: In vitro cAMP signal activity via the human PTH1R (HKRK-B7 cells); assay type: cell-based; conditions: human PTH(1-34) at 100 nM = 100%; for EC20: concentration at 20% cAMP signaling activity
# T1 construct: expressed in transfected cells; host or cells: HKRK-B7 (LLC-PK1 porcine kidney cells stably expressing human PTH1R)
# T1 sequence (Q03431 27-593): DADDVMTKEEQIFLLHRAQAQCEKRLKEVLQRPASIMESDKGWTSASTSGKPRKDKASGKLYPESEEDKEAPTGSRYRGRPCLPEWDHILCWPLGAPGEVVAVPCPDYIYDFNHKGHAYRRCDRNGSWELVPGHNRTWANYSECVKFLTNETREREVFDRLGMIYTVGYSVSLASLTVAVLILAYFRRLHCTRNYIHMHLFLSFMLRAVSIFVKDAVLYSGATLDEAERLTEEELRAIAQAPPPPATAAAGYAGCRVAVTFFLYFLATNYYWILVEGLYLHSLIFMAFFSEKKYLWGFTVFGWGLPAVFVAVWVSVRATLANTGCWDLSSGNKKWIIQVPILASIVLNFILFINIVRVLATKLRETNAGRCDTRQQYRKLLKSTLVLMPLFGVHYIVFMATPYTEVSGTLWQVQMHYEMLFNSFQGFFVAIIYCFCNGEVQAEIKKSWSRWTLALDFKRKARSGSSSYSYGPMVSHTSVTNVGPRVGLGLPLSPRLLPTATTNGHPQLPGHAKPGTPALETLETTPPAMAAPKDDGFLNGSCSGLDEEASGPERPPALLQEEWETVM
# Procedure: Human PTH(1-34) and calcitonin were purchased from Peptide Institute, Inc. (Osaka, Japan), dissolved in 10 mM acetic acid to 1 mM and stored in a −80° C. freezer.
# Cells were cultured in Dulbecco's modified Eagle's medium (DMEM) supplemented with 10% fetal bovine serum (Hyclone), 100 units/ml penicillin G and 100 μg/ml streptomycin sulfate (Invitrogen Corp) at 37° C. in a humidified atmosphere containing 5% CO2.
# cAMP signal transduction analysis utilized LLC-PK1 cells not expressing the PTH1R, and HKRK-B7 cells, that is, LLC-PK1 cells overexpressing the human PTH1R at 9.5×10^5 receptors/cell (Takasu et al., J. Bone. Miner. Res. 14:11-20, 1999).
# HKRK-B7 or LLC-PK1 cells were seeded into a 96-well plate at 1×10^5 cells/well and incubated overnight. On the following day, 50 μl of cAMP assay buffer (DMEM, 2 mM IBMX, 0.2 mg/ml bovine serum albumin, 35 mM Hepes-NaOH, pH 7.4) containing human PTH(1-34) or each compound was added and the plate was placed in a 37° C. incubator. The cells were incubated for 20 minutes. After removing the medium, the cells were washed with 100 μl of cAMP assay buffer once. The plate was placed on dry ice powder to freeze the cells and then removed from the dry ice. The cells were lysed with 40 μl of 50 mM HCl and frozen again on dry ice. The amount of intracellular cAMP produced was measured using a commercially available cAMP EIA kit (Biotrack cAMP EIA system, GE health care).
# Analyses were performed using a variable gradient S-shaped dose-response curve equation.
# [3] = system: TPTX rat; experiment: Calcemic action in the TPTX rat model; assay type: in vivo; conditions: TPTX rats, 30 mg/kg oral; for change of serum Ca concentration from the Pre-value (in words): up to 24 hours after administration
# Procedure: Four-week old female Crl:CD(SD) rats were obtained from Charles River Japan (Atsugi Breeding Center), and were acclimated to standard laboratory conditions of 20-26° C. and 35-75% humidity for one week. The rats were given tap water and were fed ad libitum with standard rodent chow (CE-2) (CLEA Japan, Inc.) containing 1.1% calcium, 1.0% phosphoric acid, and 250 IU/100 g of vitamin D3.
# TPTX was performed on five-week old rats. Some of the individuals were subjected to sham operation (Sham). Individuals whose serum Ca concentration was less than 8 mg/dL on four days after the operation were selected for use as TPTX rats. On five days after the operation, the rats were assigned to eight TPTX groups and one Sham group (n=5, each group) based on their body weight and serum Ca concentration measured on four days after the operation. The solvent alone was orally administered to the Sham group and the TPTX-Vehicle group at a volume of 10 mL/kg. Each test article was orally administered individually to each TPTX test article group by dissolving it in a solvent at a dose of 30 mg/10 mL/kg. The solvent composition was 10% dimethylsulfoxide (Wako Pure Chemical Industries, Ltd.), 10% Cremophor EL (Sigma-Aldrich Japan LLC), 20% hydroxypropyl-β-cyclodextrin (Nihon Shokuhin Kako Co., Ltd.), glycine (Wako Pure Chemical Industries, Ltd.); and the pH was adjusted to 10. Immediately before administration of each sample, Pre-blood collection was performed, and blood collection was carried out at 2, 6, 10, and 24 hours after administration to measure the serum Ca concentration. Each blood collection was carried out from the jugular vein under isoflurane inhalation anesthesia.
# Serum Ca measurement: Serum obtained by centrifugation from the collected blood was measured by using an automatic analyzer TBA-120FR (Toshiba Medical Systems Corporation).
# For statistical analysis of the animal studies, data are shown as mean±standard error (SE). Statistical analysis were performed by unpaired test of the SAS Preclinical Package (Ver. 5.00.010720, SAS Institute Japan, Tokyo, Japan).
Compound,"rat hepatocyte metabolic stability compared to Comparative Examples 1, 2, 3, 5, and 6 (in words) [1]",EC20 [2],achievement of the therapeutic target range of serum Ca concentration of 7.6 to 8.8 mg/dL [3],change of serum Ca concentration from the Pre-value (in words) [3],EC50 ([2]; concentration at 50% cAMP signaling activity)
"Cc1cc(N2C(=O)NC(=O)C2(C)C)cc(C)c1CCS(=O)(=O)N1CCC2(CC1)N=C(c1cccc(Br)c1)NC2=O [Compound 2, 1-(4-(2-((2-(3-bromophenyl)-4-oxo-1,3,8-triazaspiro[4.5]deca-1-en-8-yl)sulfonyl)ethyl)-3,5-dimethylphenyl)-5,5-dimethylimidazolidine-2,4-dione]",increased,2.4 µM,–,–,–
"CCC1CCC(C2=NC3(CCN(S(=O)(=O)CCc4ccc(N5CC(=O)NC5=O)cc4C)CC3)C(=O)N2)CC1 (stereo not drawn) [Comparative Example 4, reference compound]",–,>505 µM,–,–,–
"Cc1cc(N2C(=O)CNC2=O)cc(C)c1CCS(=O)(=O)N1CCC2(CC1)N=C(c1cccc(OC(F)(F)F)c1)NC2=O [Comparative Example 2, reference compound]",–,3.1 µM,could not be achieved,smaller positive changes from the Pre-value,–
"CC[C@H]1CC[C@H](C2=NC3(CCN(S(=O)(=O)CCc4ccc(N5C(=O)NC(=O)C5(C)C)cc4C)CC3)C(=O)N2)CC1 [Comparative Example 6, reference compound]",–,3.6 µM,–,–,–
"Cc1cc(N2C(=O)NC(=O)C2(C)C)cc(C)c1CCS(=O)(=O)N1CCC2(CC1)N=C(c1ccc(F)c(C(F)(F)F)c1)NC2=O [Compound 3, 1-(4-(2-((2-(4-fluoro-3-(trifluoromethyl)phenyl)-4-oxo-1,3,8-triazaspiro[4.5]deca-1-en-8-yl)sulfonyl)ethyl)-3,5-dimethylphenyl)-5,5-dimethylimidazolidine-2,4-dione]",–,1.5 µM,–,–,7.2 µM
"Cc1cc(N2C(=O)NC(=O)C2(C)C)cc(C)c1CCS(=O)(=O)N1CCC2(CC1)N=C(c1ccc(F)c(OC(F)(F)F)c1)NC2=O [Compound 1, 1-(4-(2-((2-(4-fluoro-3-(trifluoromethoxy)phenyl)-4-oxo-1,3,8-triazaspiro[4.5]deca-1-en-8-yl)sulfonyl)ethyl)-3,5-dimethylphenyl)-5,5-dimethylimidazolidine-2,4-dione]",–,1.3 µM,could not be achieved,smaller positive changes from the Pre-value,–
"Cc1cc(N2C(=O)CNC2=O)cc(C)c1CCS(=O)(=O)N1CCC2(CC1)N=C(c1ccc(F)c(C(F)(F)F)c1)NC2=O [Comparative Example 3, reference compound]",–,2.0 µM,–,–,–
"CC[C@H]1CC[C@H](C2=NC3(CCN(S(=O)(=O)CCc4ccc(N5C(=O)NC(=O)C5C)cc4C)CC3)C(=O)N2)CC1 (stereo partly drawn) [Comparative Example 5, reference compound]",–,3.1 µM,–,–,–
"Cc1cc(N2C(=O)NC(=O)C2(C)C)cc(C)c1CCS(=O)(=O)N1CCC2(CC1)N=C(c1ccc(OC(F)(F)F)c(F)c1)NC2=O [Compound 4, 1-(4-(2-((2-(3-fluoro-4-(trifluoromethoxy)phenyl)-4-oxo-1,3,8-triazaspiro[4.5]deca-1-en-8-yl)sulfonyl)ethyl)-3,5-dimethylphenyl)-5,5-dimethylimidazolidine-2,4-dione]",increased,1.6 µM,–,–,–
"Cc1cc(N2C(=O)NC(=O)C2(C)C)cc(C)c1CCS(=O)(=O)N1CCC2(CC1)N=C(c1cccc(C(F)(F)F)c1)NC2=O [Compound 6, 1-(3,5-dimethyl-4-(2-((4-oxo-2-(3-(trifluoromethyl)phenyl)-1,3,8-triazaspiro[4.5]deca-1-en-8-yl)sulfonyl)ethyl)phenyl)-5,5-dimethylimidazolidine-2,4-dione]",increased,2.0 µM,achieved the therapeutic target range,large positive changes from the Pre-value,–
"Cc1cc(N2C(=O)NC(=O)C23CCN(C)CC3)cc(C)c1CCS(=O)(=O)N1CCC2(CC1)N=C(c1ccc(OC(F)(F)F)cc1)NC2=O [Compound 9, 1-(3,5-dimethyl-4-(2-((4-oxo-2-(4-(trifluoromethoxy)phenyl)-1,3,8-triazaspiro[4.5]deca-1-en-8-yl)sulfonyl)ethyl)phenyl)-8-methyl-1,3,8-triazaspiro[4.5]decane-2,4-dione]",increased,2.6 µM,–,–,–
"Cc1cc(N2C(=O)NC(=O)C2(C)C)cc(C)c1CCS(=O)(=O)N1CCC2(CC1)N=C(c1ccc3c(c1)OC(F)(F)O3)NC2=O [Compound 5, 1-(4-(2-((2-(2,2-difluorobenzo[d][1,3]dioxol-5-yl)-4-oxo-1,3,8-triazaspiro[4.5]deca-1-en-8-yl)sulfonyl)ethyl)-3,5-dimethylphenyl)-5,5-dimethylimidazolidine-2,4-dione]",increased,1.7 µM,–,–,–
